# In article PMC9090415, “Discovery of small molecule inhibitors of Plasmodium falciparum apicoplast DNA polymerase” (Journal of Enzyme Inhibition and Medicinal Chemistry, 2022):
# Biological target: P. falciparum apicoplast DNA polymerase (Pf-apPOL) (Plasmodium falciparum, UniProt Q8ILY1)
# Test: Fluorescence-based high-throughput DNA polymerase assay (molecular beacon), primary screen and dose-response
# Type: biochemical
# How it was run: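 Single-point screening used 10 µM compound with 20 nM polymerase, 20 nM hairpin substrate and 6 µM dNTPs for 90 min at 25 °C. Confirmatory titrations (2.5–80 µM) followed fluorescence at three times, and IC50 was derived from a fit including a cooperativity term n.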
# [1] = 186 hits, value of the hit list (primary screen); unit not given; 90 min, 10 µM
# [2] = primary screen value, 'DNA Pol' only; 90 min, 10 µM
# Sequence of P. falciparum apicoplast DNA polymerase (Pf-apPOL) (Q8ILY1 entry or part of it): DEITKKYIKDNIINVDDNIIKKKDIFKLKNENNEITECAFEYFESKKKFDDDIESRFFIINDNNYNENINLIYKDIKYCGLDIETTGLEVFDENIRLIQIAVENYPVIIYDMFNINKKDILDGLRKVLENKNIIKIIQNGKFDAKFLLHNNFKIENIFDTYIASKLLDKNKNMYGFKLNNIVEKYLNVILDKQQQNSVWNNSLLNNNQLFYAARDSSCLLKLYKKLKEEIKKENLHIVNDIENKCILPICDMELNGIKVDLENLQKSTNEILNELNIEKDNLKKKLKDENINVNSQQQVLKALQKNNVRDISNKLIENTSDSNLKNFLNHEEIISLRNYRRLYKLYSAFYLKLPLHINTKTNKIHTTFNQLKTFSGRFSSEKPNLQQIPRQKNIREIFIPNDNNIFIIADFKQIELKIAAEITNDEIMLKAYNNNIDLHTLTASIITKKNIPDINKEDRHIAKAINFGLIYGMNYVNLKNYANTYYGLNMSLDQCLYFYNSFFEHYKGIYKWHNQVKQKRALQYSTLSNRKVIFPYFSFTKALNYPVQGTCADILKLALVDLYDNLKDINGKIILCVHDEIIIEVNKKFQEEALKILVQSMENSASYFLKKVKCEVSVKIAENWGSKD
compound,measurement,setting,value
O=C1N/C(=N/c2ccccc2Cl)S/C1=C/c1ccc([N+](=O)[O-])o1 [KU0054524],% inhibition Apo pol 10',DRC-1; 10'; concentration 2.5,7.564%
same,% inhibition Apo pol 10',DRC-1; 10'; concentration 5,28.3365%
same,% inhibition Apo pol 10',DRC-1; 10'; concentration 10,42.7276%
same,% inhibition Apo pol 10',DRC-1; 10'; concentration 20,56.2802%
same,% inhibition Apo pol 10',DRC-1; 10'; concentration 40,80.0033%
same,% inhibition Apo pol 10',DRC-1; 10'; concentration 80,85.9961%
same,% inhibition Apol 90',DRC-1; 90'; concentration 2.5,2.857%
same,% inhibition Apol 90',DRC-1; 90'; concentration 5,16.2843%
same,% inhibition Apol 90',DRC-1; 90'; concentration 10,26.4398%
same,% inhibition Apol 90',DRC-1; 90'; concentration 20,38.2807%
same,% inhibition Apol 90',DRC-1; 90'; concentration 40,70.6237%
same,% inhibition Apol 90',DRC-1; 90'; concentration 80,84.7542%
same,% inhibition apPOL 180',DRC-1; 180'; concentration 2.5,-2.619%
same,% inhibition apPOL 180',DRC-1; 180'; concentration 5,9.438%
same,% inhibition apPOL 180',DRC-1; 180'; concentration 10,15.4402%
same,% inhibition apPOL 180',DRC-1; 180'; concentration 20,23.638%
same,% inhibition apPOL 180',DRC-1; 180'; concentration 40,57.9424%
same,% inhibition apPOL 180',DRC-1; 180'; concentration 80,81.189%
same,% inhibition Apo pol 5',"DRC-2, 5', concentration 10 (unit not given)",42%
same,% inhibition Apol 40',"DRC-2, 40', concentration 40 (unit not given)",58%
same,% inhibition ApPOL 90',"DRC-2, 90', concentration 10 (unit not given)",42%
same,% inhibition apPOL 180',"DRC-2, 180', concentration 10 (unit not given)",31%
same,% inhibition apPOL 180',"DRC-2, 180', concentration 20 (unit not given)",58%
same,% inhibition Apo pol 5',DRC-2; 5'; concentration 2.5,17%
same,% inhibition Apo pol 5',DRC-2; 5'; concentration 5,22%
same,% inhibition Apo pol 5',DRC-2; 5'; concentration 10,42%
same,% inhibition Apo pol 5',DRC-2; 5'; concentration 20,46%
same,% inhibition Apo pol 5',DRC-2; 5'; concentration 40,25%
same,% inhibition Apo pol 5',DRC-2; 5'; concentration 80,31%
same,% inhibition Apo pol 5',DRC-2; 5'; concentration 80 (unit not given),31%
same,% inhibition Apol 40',DRC-2; 40'; concentration 2.5,14%
same,% inhibition Apol 40',DRC-2; 40'; concentration 5,21%
same,% inhibition Apol 40',DRC-2; 40'; concentration 10,45%
same,% inhibition Apol 40',DRC-2; 40'; concentration 20,62%
same,% inhibition Apol 40',DRC-2; 40'; concentration 40,58%
same,% inhibition Apol 40',DRC-2; 40'; concentration 80,61%
same,% inhibition ApPOL 90',DRC-2; 90'; concentration 2.5,11%
same,% inhibition ApPOL 90',DRC-2; 90'; concentration 5,16%
same,% inhibition ApPOL 90',DRC-2; 90'; concentration 10,42%
same,% inhibition ApPOL 90',DRC-2; 90'; concentration 20,63%
same,% inhibition ApPOL 90',DRC-2; 90'; concentration 40,65%
same,% inhibition ApPOL 90',DRC-2; 90'; concentration 80,68%
same,% inhibition apPOL 180',DRC-2; 180'; concentration 2.5,7%
same,% inhibition apPOL 180',DRC-2; 180'; concentration 5,8%
same,% inhibition apPOL 180',DRC-2; 180'; concentration 10,31%
same,% inhibition apPOL 180',DRC-2; 180'; concentration 20,58%
same,% inhibition apPOL 180',DRC-2; 180'; concentration 40,67%
same,% inhibition apPOL 180',DRC-2; 180'; concentration 80,73%
same,DNA Pol,"primary screen value of the 186 hits; unit not given; 90 min, 10 µM",44
same,DNA Pol,"primary screen value, head ""DNA Pol"", unit not given; 90 min, 10 µM",44
O=C(Nc1nnc(-c2ccno2)o1)c1ccc2c(c1)OCO2 [KU0171343],DNA Pol,[1],40
same,% inhibition Apo pol 10',DRC-1; 10'; concentration 2.5,0.3504%
same,% inhibition Apo pol 10',DRC-1; 10'; concentration 5,4.323%
same,% inhibition Apo pol 10',DRC-1; 10'; concentration 10,19.3402%
same,% inhibition Apo pol 10',DRC-1; 10'; concentration 20,32.3938%
same,% inhibition Apo pol 10',DRC-1; 10'; concentration 40,61.4938%
same,% inhibition Apo pol 10',DRC-1; 10'; concentration 80,79.918%
same,% inhibition Apol 90',DRC-1; 90'; concentration 2.5,-7.247%
same,% inhibition Apol 90',DRC-1; 90'; concentration 5,-7.662%
same,% inhibition Apol 90',DRC-1; 90'; concentration 10,0.8301%
same,% inhibition Apol 90',DRC-1; 90'; concentration 20,8.774%
same,% inhibition Apol 90',DRC-1; 90'; concentration 40,33.5392%
same,% inhibition Apol 90',DRC-1; 90'; concentration 80,60.7945%
same,% inhibition apPOL 180',DRC-1; 180'; concentration 2.5,-15.466%
same,% inhibition apPOL 180',DRC-1; 180'; concentration 5,-16.6627%
same,% inhibition apPOL 180',DRC-1; 180'; concentration 10,-10.0119%
same,% inhibition apPOL 180',DRC-1; 180'; concentration 20,-7.297%
same,% inhibition apPOL 180',DRC-1; 180'; concentration 40,11.9639%
same,% inhibition apPOL 180',DRC-1; 180'; concentration 80,37.6873%
same,% inhibition Apo pol 5',"DRC-2, 5', concentration 2.5",4.65%
same,% inhibition Apo pol 5',"DRC-2, 5', concentration 5",2.76%
same,% inhibition Apo pol 5',"DRC-2, 5', concentration 10",18%
same,% inhibition Apo pol 5',"DRC-2, 5', concentration 20",19%
same,% inhibition Apo pol 5',"DRC-2, 5', concentration 40",33%
same,% inhibition Apo pol 5',"DRC-2, 5', concentration 80",26%
same,% inhibition Apol 40',"DRC-2, 40', concentration 2.5",-1.21%
same,% inhibition Apol 40',"DRC-2, 40', concentration 5",-4.25%
same,% inhibition Apol 40',"DRC-2, 40', concentration 10",14%
same,% inhibition Apol 40',"DRC-2, 40', concentration 20",14%
same,% inhibition Apol 40',"DRC-2, 40', concentration 40",39%
same,% inhibition Apol 40',"DRC-2, 40', concentration 80",51%
same,% inhibition ApPOL 90',"DRC-2, 90', concentration 2.5",-3.2%
same,% inhibition ApPOL 90',"DRC-2, 90', concentration 5",-8%
same,% inhibition ApPOL 90',"DRC-2, 90', concentration 10",11%
same,% inhibition ApPOL 90',"DRC-2, 90', concentration 20",10%
same,% inhibition ApPOL 90',"DRC-2, 90', concentration 40",36%
same,% inhibition ApPOL 90',"DRC-2, 90', concentration 80",55%
same,% inhibition apPOL 180',"DRC-2, 180', concentration 2.5",-8%
same,% inhibition apPOL 180',"DRC-2, 180', concentration 5",-14%
same,% inhibition apPOL 180',"DRC-2, 180', concentration 10",1.55%
same,% inhibition apPOL 180',"DRC-2, 180', concentration 20",0.368%
same,% inhibition apPOL 180',"DRC-2, 180', concentration 40",25%
same,% inhibition apPOL 180',"DRC-2, 180', concentration 80",51%
same,% inhibition Apol 40',DRC-2; 40'; concentration 10,14%
same,% inhibition Apol 40',DRC-2; 40'; concentration 20,14%
same,% inhibition Apol 40',DRC-2; 40'; concentration 80,51%
same,% inhibition ApPOL 90',DRC-2; 90'; concentration 5,-8%
same,% inhibition apPOL 180',DRC-2; 180'; concentration 2.5,-8%
same,% inhibition apPOL 180',DRC-2; 180'; concentration 80,51%
same,DNA Pol,[2],40
"Oc1ccc(N=Nc2ccccc2)c(O)c1 [Molecule 80, Oc1ccc(c(c1)O)N=Nc1ccccc1]",DNA Pol,[1],72
same,% inhibition Apo pol 10',DRC-1; 10'; concentration 2.5,10.9556%
same,% inhibition Apo pol 10',DRC-1; 10'; concentration 5,10.5427%
same,% inhibition Apo pol 10',DRC-1; 10'; concentration 10,21.5612%
same,% inhibition Apo pol 10',DRC-1; 10'; concentration 20,33.6555%
same,% inhibition Apo pol 10',DRC-1; 10'; concentration 40,51.3856%
same,% inhibition Apo pol 10',DRC-1; 10'; concentration 80,71.5271%
same,% inhibition Apol 90',DRC-1; 90'; concentration 2.5,-0.1987%
same,% inhibition Apol 90',DRC-1; 90'; concentration 5,0.4517%
same,% inhibition Apol 90',DRC-1; 90'; concentration 10,6.956%
same,% inhibition Apol 90',DRC-1; 90'; concentration 20,15.0719%
same,% inhibition Apol 90',DRC-1; 90'; concentration 40,30.4244%
same,% inhibition Apol 90',DRC-1; 90'; concentration 80,54.1765%
same,% inhibition apPOL 180',DRC-1; 180'; concentration 2.5,-4.521%
same,% inhibition apPOL 180',DRC-1; 180'; concentration 5,-7.381%
same,% inhibition apPOL 180',DRC-1; 180'; concentration 10,-2.239%
same,% inhibition apPOL 180',DRC-1; 180'; concentration 20,3.639%
same,% inhibition apPOL 180',DRC-1; 180'; concentration 40,16.6852%
same,% inhibition apPOL 180',DRC-1; 180'; concentration 80,39.1474%
same,% inhibition Apo pol 5',"DRC-2, 5', concentration 2.5",1.77%
same,% inhibition Apo pol 5',"DRC-2, 5', concentration 5",5.48%
same,% inhibition Apo pol 5',"DRC-2, 5', concentration 10",24%
same,% inhibition Apo pol 5',"DRC-2, 5', concentration 20",31%
same,% inhibition Apo pol 5',"DRC-2, 5', concentration 40",44%
same,% inhibition Apo pol 5',"DRC-2, 5', concentration 80",51%
same,% inhibition Apol 40',"DRC-2, 40', concentration 2.5",1.06%
same,% inhibition Apol 40',"DRC-2, 40', concentration 5",2.17%
same,% inhibition Apol 40',"DRC-2, 40', concentration 10",23%
same,% inhibition Apol 40',"DRC-2, 40', concentration 20",29%
same,% inhibition Apol 40',"DRC-2, 40', concentration 40",43%
same,% inhibition Apol 40',"DRC-2, 40', concentration 80",54%
same,% inhibition ApPOL 90',"DRC-2, 90', concentration 2.5",-1%
same,% inhibition ApPOL 90',"DRC-2, 90', concentration 5",-0.664%
same,% inhibition ApPOL 90',"DRC-2, 90', concentration 10",21%
same,% inhibition ApPOL 90',"DRC-2, 90', concentration 20",24%
same,% inhibition ApPOL 90',"DRC-2, 90', concentration 40",38%
same,% inhibition ApPOL 90',"DRC-2, 90', concentration 80",52%
same,% inhibition apPOL 180',"DRC-2, 180', concentration 2.5",-4%
same,% inhibition apPOL 180',"DRC-2, 180', concentration 5",-4.42%
same,% inhibition apPOL 180',"DRC-2, 180', concentration 10",16%
same,% inhibition apPOL 180',"DRC-2, 180', concentration 20",15%
same,% inhibition apPOL 180',"DRC-2, 180', concentration 40",25%
same,% inhibition apPOL 180',"DRC-2, 180', concentration 80",41%
same,% inhibition Apo pol 5',DRC-2; 5'; concentration 10,24%
same,% inhibition ApPOL 90',DRC-2; 90'; concentration 20,24%
same,DNA Pol,[2],72
